Experimental data from patent US7981898B2, “Methods of enhancing mucosal hydration and mucosal clearance by treatment with sodium channel blockers and osmolytes” (Parion Sciences, Inc., priority 2006, dated 2011).

Test system: Primary canine bronchial epithelia (CBE)
Assay: Gravimetric measurement of surface liquid volume on primary bronchial epithelial cultures at air-liquid interface (Assay #4)
Format: cell-based
Method: 4. Durability of Novel ENaC Blockers with or without Osmolytes on Airway Surface Liquid on an in vitro Cell Culture Model.
Using a gravimetric (weighing) procedure, the luminal surface liquid (mass/volume) on primary bronchial epithelial cultures grown at an air/liquid interface on permeable membrane supports (Corning) are measured, and changes in luminal surface liquid volume are recorded for up to 8 h. An applied starting volume of buffer (Krebs-Henseleit Bicarbonate Buffer Solution) with and without equimolar concentrations (0.1-100 μM) of selected novel or commercially available sodium channel blockers with or without osmolytes are added and at which point the experiment is started. The permeable supports are then reweighted at select time points and the mass/volume recorded. The data is then analyzed determining the changes in surface liquid mass/volume form beginning to the end of the 8 hour time frame.
To measure the effects of novel sodium channel blockers with or without osmotically active agents on surface liquid volume on airway surface liquid an in vitro cell culture model was used as described above, Assay #4. The effects of an ionic osmolyte, 1.5% NaCl (hypertonic saline), with or without 10 μM of compound 1 before and after adding 1.5% NaCl and compared it to isotonic buffer (vehicle) (FIG. 1) on surface liquid volume was measured over 8 hours. Using the same method (Assay #4) the effects of a non-ionic osmolyte mannitol at 4.2 and 8.4 mg/mL were compared to compound 1 and isotonic buffer (vehicle) (FIG. 2), and also by combining mannitol (4.2 and 8.4 mg/mL) with compound 1 at 1 and 10 μM (FIG. 3) on surface liquid volume was measured. The effects of compound 2 with an ionic osmolyte, 1.5% NaCl (hypertonic saline), was compared to compound 1 and hypertonic saline (1.5% NaCl), compound 1 in isotonic buffer, compound 2 in isotonic buffer, 1.5% NaCl, and isotonic buffer (vehicle) (FIG. 4) on changes in surface liquid over 8 hours. […]

## N=C(NCCCCc1ccc(OCC(O)CO)cc1)NC(=O)c1nc(Cl)c(N)nc1N (stereo not drawn) [Compound 1]
Compound 1 (10 μM) with pre or post administration of 1.5% NaCl solution, maintained for 8 hours, n=12
  volume expansion: 132+13%
Compound 1 alone at 10 μM, for over 8 hours
  inhibition of volume depletion (surface liquid volume): 74.7 ± 8.7%
Hypertonic saline (1.5% NaCl) combined with Compound 1 (10 μM)
  duration of the increase in ASL volume: over 8 h
